Measured values published in BindingDB's records for doi:10.1016/j.chembiol.2007.05.004 (University of Tokyo, 2007).

What follows are molecules tested against T1, Cytochrome P450 1B1 (Homo sapiens, UniProt Q16678) (assay: EROD Assay). Conditions: pH 8; 37 °C.
T1 sequence (Q16678 whole entry): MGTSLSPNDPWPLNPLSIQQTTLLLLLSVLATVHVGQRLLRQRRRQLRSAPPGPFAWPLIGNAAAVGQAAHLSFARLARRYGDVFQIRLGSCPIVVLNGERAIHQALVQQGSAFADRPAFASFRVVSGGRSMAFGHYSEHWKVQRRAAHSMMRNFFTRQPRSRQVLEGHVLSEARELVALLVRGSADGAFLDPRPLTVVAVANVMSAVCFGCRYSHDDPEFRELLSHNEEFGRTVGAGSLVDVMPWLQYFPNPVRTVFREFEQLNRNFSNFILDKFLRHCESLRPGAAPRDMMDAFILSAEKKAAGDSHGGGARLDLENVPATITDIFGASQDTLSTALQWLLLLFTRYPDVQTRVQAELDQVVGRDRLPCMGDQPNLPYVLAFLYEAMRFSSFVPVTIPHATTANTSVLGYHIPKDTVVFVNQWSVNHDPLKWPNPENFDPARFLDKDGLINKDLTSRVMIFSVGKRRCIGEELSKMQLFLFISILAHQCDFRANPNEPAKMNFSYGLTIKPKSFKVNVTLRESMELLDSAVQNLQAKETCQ
Description: The ethoxyresorufin-O-deethylase (EROD) assay is used to test the activity of CYP1B1.

Point of comparison: Oc1ccc(/C=C/c2cc(O)cc(O)c2)cc1 [5-[(E)-2-(4-hydroxyphenyl)ethenyl]benzene-1,3-diol], Ki 0.177 µM. Against it:
- Oc1cc(O)cc(/C=C/c2ccsc2)c1 [Stilbene, 16f] — 6.7-fold higher, 1.18 µM
- Oc1cc(O)cc(/C=C/c2ccoc2)c1 [Stilbene, 15f] — 6.3-fold higher, 1.11 µM
- Oc1cc(O)cc(/C=C/c2ccccc2)c1 [(E)-5-(2-phenylethenyl)-1,3-benzenediol] — 2.4-fold lower, 0.0743 µM
- Oc1cc(O)cc(/C=C/c2ccc(F)cc2)c1 [Stilbene, 8f] — 1.8-fold higher, 0.323 µM
